From PMC5062470, “The mGluR2 positive allosteric modulator, SAR218645, improves memory and attention deficits in translational models of cognitive symptoms associated with schizophrenia” (Scientific Reports, 2016)

Key:
[1] = molecular target: T1, human mGluR3 (Homo sapiens, UniProt Q14832); assay: Multispan Allosteric Profiling panel, Ca2+ (Gqi5); format: cell-based
T1 construct: host or cells: HEK293 co-expressing Gqi5

[2] = system: OF1 mice; assay: Pentylenetetrazol (PTZ) seizure threshold test; format: in vivo; conditions: dose-range 10–30, po
Procedure: The seizure threshold was determined by the infusion of 8 mg/mL of PTZ at a rate of 0.7 mL/min via a flexible plastic catheter into the tail vein of freely moving OF1 mice (22–24 g) using an infusion pump. The convulsant dose for each endpoint was calculated in mg/kg PTZ. SAR218645 (10 and 30 mg/kg, po) and diazepam (3 mg/kg, ip) were administered 60 or 30 min prior to the beginning of PTZ infusion, respectively. One-way ANOVA was used to assess overall effect of treatment, and Dunnett’s post-hoc was used to compare differences between treatment groups. Ten to fifteen animals per group were used.

[3] = molecular target: T2, human mGluR1 (Homo sapiens, UniProt Q13255); assay: Multispan Allosteric Profiling panel, Ca2+ (Gqi5); format: cell-based
T2 construct: host or cells: HEK293 co-expressing Gqi5

[4] = system: mice; set-up: method as in earlier work; conditions: cited from earlier work
[5] = system: Swiss mice; assay: Novel object recognition task, MK-801-induced deficit; format: in vivo
Excerpt: The test apparatus was based on that described by Ennaceur and Delacour[37] in rats and adapted for use in mice[38]. The apparatus consisted of a uniformly lit (20 lux) PVC enclosure (52 L × 52 W × 40 H cm) with a video camera positioned 160 cm above the bench. The objects to be discriminated were a metal triangle (3.3 cm height, 5.5 cm wide) and a plastic piece of construction game (3 cm height and 3 cm wide). The observer was located in an adjacent room fitted with a video monitoring system. The experiment consisted of 3 sessions. During the first session, male Swiss mice (25–30 g) were allowed to become familiar with the experimental environment for 5 min (S1). Time spent active (animal moving around with or without sniffing and exploration) was measured. […] Times spent exploring the familiar and novel objects were recorded. […] Data (time exploring each of the two objects, in seconds) were analyzed with a two-way ANOVA, with the treatment and the object as the between factors, followed by a Winer analysis for comparing the time spent exploring the familiar versus the novel object for each treatment. […]

[6] = system: C57BL/6J mice; assay: Amphetamine-induced disruption of latent inhibition (LI); format: in vivo; conditions: dose-range 0.1–10, po
Procedure: The procedure was based on that described by Lipina et al.[39]. Briefly, male C57BL/6J mice (20–30 g, 6–8-week-old) were water restricted and trained to drink in an operant chamber for 15 min over 5 daily sessions. The LI procedure was completed in the following stages each given 24 h apart: (a) Pre-exposure: The preexposed (PE) animals received 40, 85-dB white noise presentations in the chamber for 50 min; the non-preexposed (NPE) animals were confined to the chamber for the same period but without the presence of the tone. (b) Conditioning: All mice received 2 tone-shock (1 s, 0.37 mA) pairings in the chamber. (c) Test: Each mouse was placed in the chamber and allowed to drink. After completing 75 licks, the white noise was presented and lasted until the mouse completed 100 licks. For data analysis, the time during 50–75 licks (A period) and the time to complete licks 76–100 (after tone onset; B period) was calculated into a suppression ratio defined as A/(A+B). A low suppression ratio indicates a stronger suppression of drinking. LI is defined as an […] in suppression ratio (little or no suppression), whereas a shorter time to complete licks 76–100 of the pre-exposed mice compared to the non-pre-exposed mice. Data (i.e. suppression ratio) were analyzed using the Friedman nonparametric two-way ANOVA model. […]

[7] = system: Swiss mice; assay: Amphetamine-induced locomotor hyperactivity; format: in vivo
Procedure: An actimeter device consisting of a cylinder (20 cm diameter, 9.5 cm height, Apelex, France) equipped with two perpendicular light beams located 1.5 cm above the floor was used. Mice from the transgenic batches (DAT^−/− and NMDA Nr1^neo−/−) were orally pretreated with either SAR218645 or vehicle and individually isolated in boxes for a period of 60 min. Animals were then placed in the actimeter device and locomotor activity (number of interrupted light beams) was recorded for a period of 30 or 60 min. Mice in which the expression of the dopamine transporter (DAT) was knocked out (i.e., the DAT^−/− mouse) have been proposed as a reliable model of the positive symptoms of schizophrenia. In these mice, dopamine levels in the synapse are dramatically elevated and these animals are hyperactive and agitated in behavioral tests. […] Immediately following amphetamine challenge, 30 min after MK-801 challenge, mice were placed in the actimeter devices and locomotor activity was recorded for a period of 30 (DAT^−/−) or 60 (NMDA Nr1^neo−/−) min.
Statistical analyses were performed using SAS V8.2 software (SAS Institute, Cary, NC, USA). The number of light beam breaks (motility count) recorded for 30 or 60 min were analyzed using one-way ANOVAs using a fixed factor of challenge or genotype and complementary post hoc (Newman-Keuls) tests were performed. […]

T2 sequence (Q13255 19-1194): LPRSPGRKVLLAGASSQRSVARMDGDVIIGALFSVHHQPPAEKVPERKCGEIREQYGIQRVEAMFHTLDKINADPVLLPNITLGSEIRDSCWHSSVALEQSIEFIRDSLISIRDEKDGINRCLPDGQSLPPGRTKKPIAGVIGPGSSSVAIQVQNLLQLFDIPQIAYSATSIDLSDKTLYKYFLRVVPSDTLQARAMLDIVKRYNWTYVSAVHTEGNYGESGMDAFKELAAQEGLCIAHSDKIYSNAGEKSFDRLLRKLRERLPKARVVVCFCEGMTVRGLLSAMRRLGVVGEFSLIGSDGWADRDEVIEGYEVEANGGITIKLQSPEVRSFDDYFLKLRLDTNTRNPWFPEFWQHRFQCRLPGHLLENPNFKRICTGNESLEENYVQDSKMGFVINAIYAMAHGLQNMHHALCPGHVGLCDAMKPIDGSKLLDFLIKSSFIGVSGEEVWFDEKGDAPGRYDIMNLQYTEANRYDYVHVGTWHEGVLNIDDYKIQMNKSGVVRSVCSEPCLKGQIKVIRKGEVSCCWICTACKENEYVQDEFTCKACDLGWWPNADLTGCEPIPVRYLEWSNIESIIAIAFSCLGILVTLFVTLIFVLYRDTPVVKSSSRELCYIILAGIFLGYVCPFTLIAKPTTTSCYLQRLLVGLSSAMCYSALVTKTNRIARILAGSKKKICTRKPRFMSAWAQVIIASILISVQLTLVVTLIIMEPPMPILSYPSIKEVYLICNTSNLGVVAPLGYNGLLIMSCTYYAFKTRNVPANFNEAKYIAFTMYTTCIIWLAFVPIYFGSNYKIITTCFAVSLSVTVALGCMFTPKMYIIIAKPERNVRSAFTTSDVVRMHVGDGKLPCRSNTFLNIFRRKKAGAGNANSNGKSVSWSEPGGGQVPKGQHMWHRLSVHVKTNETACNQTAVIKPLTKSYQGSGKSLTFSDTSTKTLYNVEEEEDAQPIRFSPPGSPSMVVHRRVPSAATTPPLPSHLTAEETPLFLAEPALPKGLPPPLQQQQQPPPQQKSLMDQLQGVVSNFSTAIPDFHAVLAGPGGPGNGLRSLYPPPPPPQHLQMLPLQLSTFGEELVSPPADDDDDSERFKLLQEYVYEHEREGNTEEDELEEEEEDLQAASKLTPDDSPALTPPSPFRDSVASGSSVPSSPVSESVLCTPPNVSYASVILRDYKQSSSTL
T1 sequence (Q14832 23-879): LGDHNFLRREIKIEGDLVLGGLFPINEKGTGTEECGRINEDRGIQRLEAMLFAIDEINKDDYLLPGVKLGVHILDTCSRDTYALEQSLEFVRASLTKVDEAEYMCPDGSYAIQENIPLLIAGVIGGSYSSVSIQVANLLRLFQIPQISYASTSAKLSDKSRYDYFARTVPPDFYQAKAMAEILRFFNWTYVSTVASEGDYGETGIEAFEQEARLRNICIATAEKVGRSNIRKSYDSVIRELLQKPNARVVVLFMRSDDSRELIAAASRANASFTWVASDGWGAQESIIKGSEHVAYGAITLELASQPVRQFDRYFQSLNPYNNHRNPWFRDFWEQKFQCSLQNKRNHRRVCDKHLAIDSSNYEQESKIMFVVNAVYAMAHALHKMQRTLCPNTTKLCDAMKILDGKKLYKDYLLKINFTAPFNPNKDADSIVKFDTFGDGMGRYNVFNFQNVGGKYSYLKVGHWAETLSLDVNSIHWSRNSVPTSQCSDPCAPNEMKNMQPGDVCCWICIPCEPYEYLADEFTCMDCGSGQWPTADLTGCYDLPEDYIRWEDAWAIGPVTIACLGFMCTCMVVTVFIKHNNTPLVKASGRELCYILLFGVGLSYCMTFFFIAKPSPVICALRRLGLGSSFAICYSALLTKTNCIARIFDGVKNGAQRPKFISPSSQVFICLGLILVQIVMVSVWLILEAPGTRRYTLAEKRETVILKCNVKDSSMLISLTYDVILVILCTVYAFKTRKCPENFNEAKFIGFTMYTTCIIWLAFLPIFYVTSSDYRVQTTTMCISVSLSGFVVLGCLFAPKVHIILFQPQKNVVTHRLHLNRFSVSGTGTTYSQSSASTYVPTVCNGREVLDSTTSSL

## CC1(C)CCc2cc(OC[C@@H]3Cn4ccc(=O)nc4O3)ccc21 [SAR218645, (S)-2-(1,1-dimethyl-indan-5-yloxymethyl)-2,3-dihydro-oxazolo[3,2-a]pyrimidin-7-one]
[1]; 10 μM SAR218645
  effect on glutamate-induced increases in intracellular calcium: no effect
[1]; SAR218645 alone
  calcium response to compound alone: did not elicit a calcium response
[2]
  Minimal active dose: >30 mg/kg
[3]; 10 μM SAR218645
  effect on glutamate-induced activation: no effect
[3]; SAR218645 alone
  calcium response to compound alone: did not elicit a calcium response
[4]
  effect on the activity of risperidone in the active avoidance test: did not interfere
[5]; 0.01, 0.03 and 0.1 mg/kg po, coadministered with MK-801 (0.0125 mg/kg, ip)
  effect on preferential investigation of the novel object: significantly restored
[5]; dose-range 0.01–1, po, Swiss mice
  Minimal active dose: 0.01 mg/kg
[6]
  Minimal active dose: 1 mg/kg
[7]; amphetamine 2 mg/kg ip, SAR218645 po
  effect on locomotor activity: no effects
[7]; dose-range 0.1–10, po, Swiss mice
  Minimal active dose: >10 mg/kg
